In patent US5049673A, “Fluorescent indicator dyes for calcium working at long wavelengths” (The Regents of the University of California, priority 1987, dated 1991):
Where two headings read alike, the source gives them in different places. One block for each compound: values may come before it.

Columns and labels:
[1] = Absorbance and fluorescence properties in the presence and absence of Ca2+; format: physicochemical
Experimental: FIG. 4. Excitation (A) and emission (B) spectra for fluo-3 at 22°±2° C. in buffers with free Ca^2+ values ranging from <1 nM to 58 microM. The titration was done starting with 3.5 ml of 100 mM KCl, 10 mM K-MOPS, 10 mM K2 H2 EGTA, 15 microM fluo-3, pH 7.03. The "O" Ca spectrum was recorded, then to reach n mM CaEGTA, (10-n) mM EGTA, n=1-10, aliquots of 3.5/(11-n) ml were iteratively discarded and replaced by equal volumes of 100 mM KCl, 10 mM K-MOPS, 10 mM K2 CaEGTA, 15 microM fluo-3, pH 7.0. After each iteration the pH (range 6.99 to 7.05) and spectra were recorded; each spectrum is labeled by the calculated free Ca^2+ in micromolar. The excitation and emission bandwidths were 1.9 nm and 4.6 nm respectively. All spectra have been normalized with respect to the peak of the 58 microM (n=10) curve. In A, emission was collected at 530 nm, and the excitation was corrected for lamp and monochromator characteristics using a rhodamine B quantum counter. In B, excitation was at 490 nm, and the emission spectrum is uncorrected for monochromator and detector sensitivity. The slightly low amplitude of the curve at 3.6 microM [Ca^2+ ] is probably due to a small error in resetting the excitation monochromator to 490 nm.
(§1) FIG. 6. The product of fluorescence quantum efficiency and extinction coefficient vs. free [Ca^2+ ] (note log axes for both) for quin-2, fura-2, indo-1, rhod-2, and fluo-3. All data are for room temperature, 0.1 M KCl, no added Mg^2+. […] The curve for fluo-3 used the data of Table I with extinction coefficients of 7.5×10^4 to 8.35×10^4 at 506 nm; the curve for rhod-2 assumed a Ca^2+ -independent extinction coefficient of 1×10^5 M^-1 cm^-1.
Examples of the synthetic routes than can be used to produce the new dyes of the present invention are outlined in FIGS. 2 and 3. Full descriptions of the reaction conditions are described below under the section entitled Compound Synthesis. Optical spectra were measured as described by Grynkiewicz, et al. (1985). (See ref. 9.) Quantum efficiencies of fluorescence were obtained (see ref. 10) by comparing the integral of the corrected emission spectrum of the test sample with that of a solution of rhodamine B in ethanol, quantum efficiency assumed to be 0.97 (see ref. 11), or fluorescein in 0.1 M NaOH, quantum efficiency 0.91 (see ref. 10). The concentration of the reference dye was adjusted to match the absorbance of the test sample at the wavelength of excitation.
The absorbance and fluorescence properties for the new indicators in the presence and absence of Ca^2+ are shown in Table I. The absorbance spectra were much as one would expect for rhodamine or fluorescein chromophores, though extinction coefficients (not shown) were often low in the dyes as initially isolated. Because fluo-3 appeared to be a very useful indicator compound, extra effort was expended in its purification. Eventually, quite respectable extinction coefficients were obtained, 7.9×10^4 and 8.3×10^4 M^-1 cm^-1 at 503 and 506 nm, respectively for free and Ca^2+ -bound fluo-3. Ca^2+ binding was expected to shift the absorbance maxima to longer wavelengths,since it would prevent the BAPTA amino nitrogen from donating electron density to the 9-position of the xanthene. Electron-withdrawal and donation to the central carbon of triphenylmethane dyes are known to shift absorbance peaks to longer and shorter wavelengths, respectively (see ref. 19). Indeed, Ca^2+ binding caused red shifts, but of very small magnitude, 1-3 nm, and with little change in peak height.
Fluo-3 has a visibly pinkish tinge because its chlorine atoms shift its spectra to wavelengths slightly longer than those of fluo-2, just as 2,7-dichlorofluorescein is bathochromically shifted from fluorescein. […] Thus the Ca^2+ complex of fluo-3 fluoresced 35- to 40-fold more brightly than the Ca^2+ -free dye (see FIG. 4). This degree of enhancement is the greatest yet reported for a fluorescent Ca^2+ indicator. […]

[2] = for Kd: read-out: Effective dissociation constant Kd for Ca^2+, pH 7.0-7.5, ionic strengths 0.1-0.15
[3] = cited from earlier work; for Kd: room temperature, 0.1 M KCl, no added Mg^2+, read-out: Ca^2+ dissociation constant (Kd) used for FIG. 6
[4] = cited from earlier work
[5] = Photochemical stability, xenon arc illumination of air-saturated solutions; format: physicochemical
Description: Fluo-3 was briefly checked for photochemical stability. […] Since the biological usability of fluorescein is well established, the photochemical resistance of fluo-3 would seem to be adequate if not outstanding.

[6] = Mg2+ dissociation constant in Mg2+/EGTA buffers
Experimental: Free [Mg2+] was controlled by Mg^2+ /EGTA buffers assuming an apparent dissociation constant for the Mg^2+ /EGTA complex (including its monoprotonated form) of 6 mM at pH 7.60, 0.12 M ionic strength, 20°, as calculated from the data of Martell & Smith (see ref. 12).

[7] = Product of fluorescence quantum efficiency and extinction coefficient vs free [Ca2+] (FIG. 6); format: physicochemical
Description: as §1
Whereas fura-2 and indo-1 were clearly much more intensely fluorescent than quin-2, enabling measurements with much less added dye and Ca^2+ buffering, comparison of the brightness of the new dyes with that of fura-2 and indo-1 is more complex of the different operating wavelengths. The simplest measure of the intrinsic brightness of a fluorophore is the product of its emission quantum efficiency and its extinction coefficient at the appropriate excitation wavelength (see FIG. 6). At the present time, extinction coefficients are known only for fluo-3, though one may estimate the values for the other indicators from purified model xanthene dyes (9-10×10^4 M^-1 cm^31 1). For fluo-3, the quantum efficiency×extinction coefficient ranges from 3×10^3 to 1.5×10^4 M^-1 cm^-1 for Ca^2+ values from 10^-7 M up to saturation, slightly less than the corresponding values for fura-2 excited at 340 nm, 5×10^3 to 1.6× 10^4 M^-1 cm^-1 (see FIG. 6). However, it is easier to generate higher excitation intensities at longer wavelengths, and autofluorescence will be lower, so the actual concentrations of dye needed to overcome dark current and autofluorescence may be fairly similar for the two families. On the other hand, the relatively small separation between excitation and emission peaks of the new dyes makes more stringent demands on monochromators and filters to exclude scattered light.
The Ca^2+ affinities of the new dyes are two to ten-fold weaker than those of their UV-excited predecessors. […]

[8] = parent compounds, literature; read-out: Ca^2+ dissociation constant of parent compounds; cited from earlier work

Fluorescence maxima, emission, with excess Ca [1]: 576 nm | Fluorescence maxima, excitation, with excess Ca [1]: 553 nm | Fluorescence quantum efficiency, excess Ca [1]: .102 | Fluorescence quantum efficiency, zero Ca [1]: .03 | Kd [2]: 1 µM
SMILES: Cc1ccc(N(CC(=O)O)CC(=O)O)c(OCCOc2cc(-c3c4ccc(=[N+](C)C)cc-4oc4cc(N(C)C)ccc34)ccc2N(CC(=O)O)CC(=O)O)c1 [rhod-2]
Fluorescence ratio, excess vs. zero Ca [1]: 3.4

SMILES: Cc1ccc(N(CC(=O)O)CC(=O)O)c(OCCOc2cc(-c3cc4ccc(C(=O)O)cc4[nH]3)ccc2N(CC(=O)O)CC(=O)O)c1 [indo-1]
Kd [3]: 0.25 µM

SMILES: O=c1ccc2c(-c3ccccc3)c3ccc(O)cc3oc-2c1 [9-phenylfluorone]
Quantum efficiency of model compound [4]: 0.21

SMILES: COc1cc(N(CC(=O)O)CC(=O)O)c2nc(COc3cc(C)ccc3N(CC(=O)O)CC(=O)O)ccc2c1 [quin-2, 2-[[2-[bis(carboxymethyl)amino]-5-methylphenoxy]-6-methoxy-8-bis(carboxymethyl)amino]quinolline]
Extinction coefficient at 339 nm ([3]; 339 nm, independent of Ca^2+): 4600 M⁻¹ cm⁻¹ | Kd [3]: 0.078 µM

Fluorescence maxima, emission, with excess Ca [1]: 518 nm | Fluorescence maxima, excitation, with excess Ca [1]: 493 nm | Fluorescence quantum efficiency, excess Ca [1]: .125 | Fluorescence quantum efficiency, zero Ca [1]: .004 | Fluorescence quenching on titration from pH 7.7 to 4.1 (absence of Ca^2+): almost completely quenched | Ratio between the brightness of the deprotonated and the protonated species (absence of Ca^2+): 67 | Kd [2]: 0.37 µM
SMILES: Cc1ccc(N(CC(=O)O)CC(=O)O)c(OCCOc2cc(-c3c4ccc(=O)cc-4oc4cc(O)ccc34)ccc2N(CC(=O)O)CC(=O)O)c1 [fluo-2, 9-(4-bis(carboxymethyl)amino-3-(2-(2-bis(carboxymethyl)amino-5-methylphenoxy)ethoxy)phenyl)-6-hydroxy-3H-xanthen-3-one]
Fluorescence ratio, excess vs. zero Ca [1]: 31

SMILES: O=C1OC2(c3ccc(O)cc3Oc3cc(O)ccc32)c2ccccc21 [fluorescein]
Quantum efficiency of reference dye in 0.1 M NaOH ([4]; 0.1 M NaOH): 0.91

SMILES: CCN(CC)c1ccc2c(-c3ccccc3C(=O)O)c3ccc(=[N+](CC)CC)cc-3oc2c1 [rhodamine B]
Quantum efficiency of reference dye in ethanol ([4]; in ethanol): 0.97

Photobleaching rate, Ca^2+ complex ([5]; Ca^2+ complex): bleached about half as quickly | Fluorescence enhancement by Mg^2+ binding ([6]; Mg^2+ binding): about 1.4 fold | Kd ([6]; read-out: Mg^2+ dissociation constant, 25°, 0.1-0.15 M ionic strength): 9000 µM | Extinction coefficient, free dye ([1]; 503 nm, free): 79000 M⁻¹ cm⁻¹ | Extinction coefficient, Ca^2+-bound dye ([1]; 506 nm, Ca^2+-bound): 83000 M⁻¹ cm⁻¹ | Fluorescence maxima, emission, with excess Ca [1]: 526 nm | Fluorescence maxima, excitation, with excess Ca [1]: 506 nm | Fluorescence quantum efficiency, excess Ca [1]: .183 | Fluorescence quantum efficiency, zero Ca [1]: .0051 | Amino pKa, independent rough confirmation from intermediate [Ca^2+] curves (100 mm kcl, tris-mops): about 6.2 | pKa of amino nitrogen (100 mm kcl, tris-mops): about 6.2 | pKa of chromophore (absorbance spectrum or fluorescence amplitude of Ca^2+-complex) (100 mm kcl, tris-mops): 4.5-4.6 | Increase of fluorescence of Ca^2+-free dye, pH 8 to pH 5 (Ca^2+-free, maximal): ≤ 3 fold | Kd [2]: 0.45 µM
SMILES: Cc1ccc(N(CC(=O)O)CC(=O)O)c(OCCOc2cc(-c3c4cc(Cl)c(=O)cc-4oc4cc(O)c(Cl)cc34)ccc2N(CC(=O)O)CC(=O)O)c1 [fluo-3, 9-(4-bis(carboxymethyl)amino-3-(2-(2-bis(carboxymethyl)amino-5-methylphenoxy)ethoxy)phenyl)-2,7-dichloro-6-hydroxy-3 H-xanthen-3-one]
Photobleaching rate, Ca^2+-free ([5]; Ca^2+-free): bleached at about the same rate as ordinary fluorescein anion | Effect of Mg^2+ binding on chelator fluorescence [6]: relatively little effect | Fluorescence enhancement, Ca^2+ complex vs Ca^2+-free dye ([1]; Ca^2+ complex vs free dye): 40 fold | Fluorescence ratio, excess vs. zero Ca [1]: 36-40 | [Ca^2+] giving double the fluorescence at zero [Ca^2+] [7]: 11 nM | Conversion to Ca^2+ complex at 11 nM [Ca^2+] ([7]; 11 nM [Ca^2+]): 2.5% | Brightness of Ca^2+ complex relative to free dye (in words) ([7]; Ca^2+ complex vs free dye): forty-fold brighter | Effectiveness of intermediate Ca^2+ at enhancing fluorescence at pH 6.1-6.2 vs pH ~8 (pH about 6.1-6.2 vs pH ~8): about half as effective | Effect of added chlorines on Ca^2+ affinity [2]: very little effect

SMILES: O=C(O)CN(CC(=O)O)c1ccccc1OCCOc1ccccc1N(CC(=O)O)CC(=O)O [BAPTA, 1,2-bis(2-amino-phenoxy)ethane N,N,N',N'-tetraacetic acid]
Kd [8]: 0.11 µM

Fluorescence maxima, emission, with excess Ca [1]: 521 nm | Fluorescence maxima, excitation, with excess Ca [1]: 499 nm | Fluorescence quantum efficiency, excess Ca [1]: .014 | Fluorescence quantum efficiency, zero Ca [1]: .0042 | pH dependence of fluorescence: some pH dependence | Kd [2]: 0.7 µM
SMILES: Cc1ccc(N(CC(=O)O)CC(=O)O)c(OCCOc2cc(-c3c4ccc(=O)cc-4oc4cc(O)ccc34)c(O)cc2N(CC(=O)O)CC(=O)O)c1 [fluo-1, 9-(6-hydroxy-4-bis(carboxymethyl)amino-3-(2-(2-bis(carboxymethyl)amino-5-methylphenoxy)ethoxy)phenyl)-6-hydroxy-3H-xanthen-3-one]
Fluorescence ratio, excess vs. zero Ca [1]: 3.3 | Lowering of Ca^2+ affinity by hydroxy group vs unsubstituted rhod-2 and fluo-2 ([2]; vs rhod-2 and fluo-2): more than two-fold
